Common to all, as to assay type: cell-based
In assay [1] the test system is human breast cancer cell line T-47D. The assay can be described thus: Caspase cascade activation (EC50), T-47D. As to conditions: T47D cells, caspase cascade activation, read-out: caspase potency (EC50) T47D. Summed up:
(§1)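 Fluorogenic DEVD-R110 cleavage at 485/530 nm gives the read-out, taken 3 h after substrate addition and corrected by the control's T=0 background. Compound-treated over control net RFU ratio was fitted sigmoidally for EC50. Cells had been treated 48 h at 0.016 to 10 μM final.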

For assay [2], the system named is human hepatocellular carcinoma cell line SNU398. The assay can be described thus: Caspase cascade activation (EC50), SNU398. The settings on record: Homo sapiens, SNU-398; SNU398 cells; caspase cascade activation; read-out: caspase potency (EC50) SNU398. Summed up:
as §1

Assay [3] has as its system human colon carcinoma cell line HCT116. The assay can be described thus: Caspase cascade activation (EC50), HCT116. As to conditions: Homo sapiens, HCT-116; HCT116 cells; caspase cascade activation; read-out: caspase potency (EC50) HCT116. The gist of the method:
as §1

Assay [4] deals with human Burkitt's lymphoma cell line Namalwa. The assay can be described thus: Caspase cascade activation (EC50), Namalwa. As to conditions: Homo sapiens, Burkitts lymphoma cell; Namalwa cells; caspase cascade activation; read-out: caspase potency (EC50) Namalwa. The gist of the method:
as §1

Assay [5] deals with human lymphoma cell line Raji. The assay can be described thus: Caspase cascade activation (EC50), Raji. As to conditions: Homo sapiens, RAJI cells, read-out: caspase potency (EC50) RAJI. The gist of the method:
as §1

For assay [6], the system named is human B cell lymphoblastoid cell line Ramos. The assay can be described thus: Caspase cascade activation (EC50), Ramos. The settings on record: Homo sapiens, RAMOS cells, read-out: caspase potency (EC50) RAMOS. The gist of the method:
as §1

Assay [7] concerns human breast cancer cell line T-47D. The assay can be described thus: Inhibition of cell proliferation (GI50), T47D. The settings on record: T47D cells, 48 h, CellTiter-Glo. The protocol: (§2) Human breast cancer cell lines T-47D, human hepatocellular carcinoma cell line SNU398, human colon carcinoma cell line HCT116, human lung cancer cell line H1299, human leukemia cell line K562, human lymphoma cell line Raji, human B cell lymphoblastoid cell line Ramos, and human Burkitt's lymphoma cell line Namalwa were grown and harvested as in Example 100. An aliquot of […] of cells (4.4×10^4 cells/mL) was added to a well of a 96-well microtiter plate containing 5 μL of a 10% DMSO in RPMI-1640 media solution containing 10 nM to 100 μM of 3-(2-chlorophenyl)-6-(3,4-methylenedioxyphenyl)-7H-[1,2,4]triazolo[3,4-b][1,3,4]thiadiazine (1 nM to 10 μM final). An aliquot of 45 μL of cells was added to a well of a 96-well microtiter plate containing 5 μL of a 10% DMSO in RPMI-1640 media solution without compound as the control sample for maximal cell proliferation (LMax). The samples were mixed by agitation and then incubated at 37° C. for 48 h in a 5% CO2-95% humidity incubator. After incubation, the samples were removed from the incubator and 25 μL of CellTiter-Glo™ reagent (Promega) was added. The samples were mixed by agitation and incubated at room temperature for 10-15 min. Plates were then read using a luminescent plate reader (Model SPECTRAfluor Plus, Tecan) to give Ltest values.
(§3) The samples were mixed by agitation and then incubated at 37° C. for 0.5 h in a 5% CO2-95% humidity incubator. After incubation, the samples were removed from the incubator and 25 μL of CellTiter-Glo™ reagent (Promega) was added. The samples were mixed by agitation and incubated at […] 10-15 min at room temperature in a 5% CO2-95% humidity incubator. Fluorescence was read as above, (LStart) defining luminescence for initial cell number used as baseline in GI50 determinations.
(§4) Calculation: GI50 (dose for 50% inhibition of cell proliferation) is the concentration where [(Ltest−LStart)/(LMax−LStart)]=0.5.
For orientation: Cellular ATP, detected with luciferase, serves as a proxy for viable cell number.

Assay [8] relates to human hepatocellular carcinoma cell line SNU398. The assay can be described thus: Inhibition of cell proliferation (GI50), SNU398. As to conditions: SNU 398 cells, 48 h, CellTiter-Glo. The method, then: as §2, §3, §4
Assay [9] deals with human colon carcinoma cell line HCT116. The assay can be described thus: Inhibition of cell proliferation (GI50), HCT116. The settings on record: HCT 116 cells, 48 h, CellTiter-Glo. Summed up: (§5)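 Seed 4.4×10^4 cells/mL onto compound dilutions (final 1 nM to 10 μM). Incubate 48 h, 37 °C, 5% CO2. Add CellTiter-Glo, read luminescence. Compute GI50 from test signal normalised between 0.5 h starting signal and untreated control.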

Assay [10] deals with human Burkitt's lymphoma cell line Namalwa. The assay can be described thus: Inhibition of cell proliferation (GI50), Namalwa. The settings on record: Homo sapiens, Burkitts lymphoma cell; Namalwa cells, 48 h, CellTiter-Glo. Summed up:
as §5

Assay [11] has as its system human cancer cell line H1299. The assay can be described thus: Caspase cascade activation (EC50), H1299. As to conditions: NCI-H1299, H1299 cells, read-out: caspase potency (EC50) H1299. The gist of the method:
as §1

Assay [12] deals with human leukemia cell line K562. The assay can be described thus: Inhibition of cell proliferation (GI50), K562. As to conditions: Homo sapiens; K562 cells, 48 h, CellTiter-Glo. Summed up:
as §5

In assay [13] the test system is human lymphoma cell line Raji. The assay can be described thus: Inhibition of cell proliferation (GI50), Raji. The settings on record: Homo sapiens; Raji cells, 48 h, CellTiter-Glo. The gist of the method:
as §5

For assay [14], the system named is human B cell lymphoblastoid cell line Ramos. The assay can be described thus: Inhibition of cell proliferation (GI50), Ramos. As to conditions: Homo sapiens; Ramos cells, 48 h, CellTiter-Glo. The gist of the method:
as §5

pEC50: −log10 of the molar value. Where two headings read alike, the source gives them in different places. Where only a bound is given, the exact number is not on record here.

We go through twelve compounds from patent publication US20080045514A1 (Cytovia, Inc., priority 2006, published 2008).

As a reminder, the pEC50 is the negative decadic logarithm of the EC50, by convention in mol/L. As a reminder, the GI50 is the concentration that inhibits growth by half.

Turning to `COc1cc(-c2nnc3n2N=C(c2ccc(C)cc2)CS3)cc(OC)c1OC` [Example 17, 3-(3,4,5-Trimethoxyphenyl)-6-(4-methylphenyl)-7H-[1,2,4]triazolo[3,4-b][1,3,4]thiadiazine], the pEC50 in assay [1] (Homo sapiens) is 6.93; in assay [2], 7.62; in [3] it was 7.34; in [4], 7.54; in assay [5] it was 7.30; in assay [6] it was 7.51. The GI50 was 15 nM in [7] (Homo sapiens), 25 nM in assay [8] (Homo sapiens) and 21 nM in [9] (Homo sapiens).

With `COc1ccccc1-c1nnc2n1N=C(c1ccc(NC(C)C)cc1)CS2` [Example 80, 6-(4-Isopropylaminophenyl)-3-(2-methoxyphenyl)-7H-[1,2,4]triazolo[3,4-b][1,3,4]thiadiazine], the pEC50 was 6.73 in [1] (Homo sapiens), 6.93 in [2], 6.69 in [3] and 6.94 in assay [4]. Also, the GI50 stood at 297 nM in assay [7] (Homo sapiens), 115 nM in [8] (Homo sapiens), 300 nM in [9] (Homo sapiens) and 170 nM in assay [10].

On to `COc1ccc(OC)c(-c2nnc3n2N=C(c2ccc(C)cc2)CS3)c1` [Example 69, 3-(2,5-Dimethoxyphenyl)-6-(4-methylphenyl)-7H-[1,2,4]triazolo[3,4-b][1,3,4]thiadiazine], for which the pEC50 in assay [1] (Homo sapiens) was 7.38; in [2], 7.82; in assay [3], 7.77; in assay [4], 7.96. For the same compound, the GI50 was determined as 50 nM in assay [7] (Homo sapiens), 4 nM in [8] (Homo sapiens), 41 nM in assay [9] (Homo sapiens) and 10 nM in [10].

Turning to `COc1ccccc1-c1nnc2n1N=C(c1ccc(N)cc1)CS2` [Example 75, 6-(4-Aminophenyl)-3-(2-methoxyphenyl)-7H-[1,2,4]triazolo[3,4-b][1,3,4]thiadiazine], the pEC50 in assay [1] (Homo sapiens) is 6.62; in assay [2] it was 6.69; in [3], 6.58; in assay [4], 6.87. In addition, the GI50 was found to be 345 nM in assay [7] (Homo sapiens), 180 nM in [8] (Homo sapiens), 867 nM in assay [9] (Homo sapiens) and 179 nM in [10].

For `COc1cccc(C2=Nn3c(nnc3-c3ccccc3OC)SC2)c1` [Example 63, 3-(2-Methoxyphenyl)-6-(3-methoxylphenyl)-7H-[1,2,4]triazolo[3,4-b][1,3,4]thiadiazine], the pEC50 was 6.58 in [1] (Homo sapiens), 6.84 in assay [2], 6.56 in assay [3] and 6.89 in [4]. The GI50 in assay [7] (Homo sapiens) stood at 371 nM; in assay [8] (Homo sapiens) it was 119 nM; in [9] (Homo sapiens), 300 nM; in assay [10], 232 nM.

For the compound `COc1ccccc1-c1nnc2n1N=C(c1ccc(C)c(C)c1)CS2` [Example 40, 3-(2-Methoxyphenyl)-6-(3,4-dimethylphenyl)-7H-[1,2,4]triazolo[3,4-b][1,3,4]thiadiazine], the pEC50 is 6.79 in assay [1] (Homo sapiens), 7.39 in assay [2], 7.19 in assay [3] and 7.31 in assay [4]. Moreover, the concentration for 50% growth inhibition (GI50) was found to be 137 nM in [7] (Homo sapiens), 50 nM in [8] (Homo sapiens), 129 nM in [9] (Homo sapiens) and 29 nM in assay [10].

For the compound `COc1cc(-c2nnc3n2N=C(c2ccc(N)cc2)CS3)cc(OC)c1OC` [Example 66, 6-(4-Aminophenyl)-3-(3,4,5-trimethoxyphenyl)-7H-[1,2,4]triazolo[3,4-b][1,3,4]thiadiazine], the pEC50 in [1] (Homo sapiens) was 7.14; in assay [2], 7.68; in assay [3], 7.54; in [4], 7.80. Moreover, the GI50 in assay [7] (Homo sapiens) was found to be 47 nM; in assay [8] (Homo sapiens), 24 nM; in assay [9] (Homo sapiens) it was 127 nM; in assay [10], 43 nM.

Take “3-(3,5-Dimethoxyphenyl-4-(2-dimethylaminoethoxy)phenyl)-6-(4-methylphenyl)-7H-[1,2,4]triazolo[3,4-b][1,3,4]thiadiazine [Example 16]”: the pEC50 in assay [1] is 6.22. Further, the values for the GI50 in assay [7], in assay [8] and in assay [9] were 936 nM, 2000 nM and 1150 nM, respectively.

Consider `Cc1ccc(C2=Nn3c(nnc3-c3ccccc3C)SC2)cc1` [Example 70, 3-(2-Methylphenyl)-6-(4-methylphenyl)-7H-[1,2,4]triazolo[3,4-b][1,3,4]thiadiazine], for which the pEC50 in [1] (Homo sapiens) was 6.26; in [2], 6.78; in [3], 6.69; in [4] it was 6.80. The GI50 in [7] (Homo sapiens) is 500 nM; in [8] (Homo sapiens), 144 nM; in [9] (Homo sapiens), 1010 nM; in assay [10], 158 nM.

Turning to `COc1ccccc1-c1nnc2n1N=C(c1ccc(N(C)C)cc1)CS2` [Example 77, 6-(4-dimethylaminophenyl)-3-(2-methoxyphenyl)-7H-[1,2,4]triazolo[3,4-b][1,3,4]thiadiazine], the pEC50 in [1] (Homo sapiens) is 7.74; in assay [2], 7.85; in assay [3], 7.96; in [4], 8.15. Further, the GI50 in assay [7] (Homo sapiens) turned out to be 5 nM; in assay [8] (Homo sapiens) it was 2 nM; in [9] (Homo sapiens) it was 12 nM; in assay [10] it was 5 nM.

As for `CCOc1ccc(C2=Nn3c(nnc3-c3ccc(C)cc3)SC2)cc1` [B, 3-(4-Methylphenyl)-6-(4-ethoxyphenyl)-7H-[1,2,4]triazolo[3,4-b][1,3,4]thiadiazine], the pEC50 in assay [1] (Homo sapiens) was 5.57; in assay [2] it was 6.58; in [3], 6.37; in [11], 5.90; in [4] it was 6.57; in assay [5], 6.34. In addition, the pEC50 in assay [6] is 6.48. Also, the GI50 in assay [9] (Homo sapiens) turned out to be 396 nM; in assay [12], 267 nM; in assay [13] it was 133 nM; in assay [14], 108 nM; in assay [10], 254 nM.

Regarding `CCOc1cccc(-c2nnc3n2N=C(c2ccc4c(c2)OCO4)CS3)c1` [Example E1, 3-(3-Ethoxyphenyl)-6-(3,4-methylenedioxyphenyl)-7H-[1,2,4]triazolo[3,4-b][1,3,4]thiadiazine], the pEC50 in assay [1] (Homo sapiens) is 5.67; in assay [2], less than 5.00; in [3] it was less than 5.00; in assay [4] it was less than 5.00; in [5] it was 5.27; in assay [6] it was 5.59. Besides, the GI50 came to 5000 nM in assay [7] (Homo sapiens), 4600 nM in assay [8] (Homo sapiens) and 5000 nM in assay [9] (Homo sapiens).
